Reference: patent EP3305781A1, “CHEMICAL SUBSTANCES WHICH INHIBIT THE ENZYMATIC ACTIVITY OF HUMAN KALLIKREIN-RELATED PEPTIDASE 6 (KLK6)” (Deutsches Krebsforschungszentrum, priority 2016, dated 2018)
Read-outs that look alike come from different tables or passages of the source.

Legend:
Assay in all cases: Biochemical inhibition assay, fluorogenic substrate FSR-AMC
Factor Xa = Factor Xa (Homo sapiens, UniProt P00742)
Thrombin = Thrombin (Homo sapiens, UniProt P00734)
KLK6 = KLK6 (Homo sapiens, UniProt Q92876)
Trypsin = Trypsin (Homo sapiens, UniProt P07477)
[1] = read-out: Factor Xa IC50, Factor Xa 4 nM, 30 min incubation with inhibitor, FSR-AMC 20 µM, Tris pH 7.5
[2] = read-out: Thrombin IC50, Thrombin 9.8·10^-5 NIH unit/mL, 30 min incubation with inhibitor, FSR-AMC 20 µM, Tris pH 7.5
[3] = read-out: KLK6 IC50, KLK6 5 nM (produced in insect cells), 30 min incubation with inhibitor, FSR-AMC 20 µM, Tris pH 7.5
[4] = read-out: Trypsin IC50, Trypsin 0.88 ng/mL, 30 min incubation with inhibitor, FSR-AMC 20 µM, Tris pH 7.5

Sequence of Factor Xa (P00742 235-488 limits assumed): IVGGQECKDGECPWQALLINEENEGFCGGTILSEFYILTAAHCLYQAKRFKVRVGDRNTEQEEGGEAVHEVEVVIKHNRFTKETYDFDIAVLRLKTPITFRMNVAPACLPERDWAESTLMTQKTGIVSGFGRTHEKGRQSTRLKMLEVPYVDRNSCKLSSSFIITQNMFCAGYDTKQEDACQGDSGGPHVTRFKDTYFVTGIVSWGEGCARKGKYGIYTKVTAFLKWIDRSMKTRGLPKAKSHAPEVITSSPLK
Sequence of Factor Xa (P00742 41-179 partner limits assumed): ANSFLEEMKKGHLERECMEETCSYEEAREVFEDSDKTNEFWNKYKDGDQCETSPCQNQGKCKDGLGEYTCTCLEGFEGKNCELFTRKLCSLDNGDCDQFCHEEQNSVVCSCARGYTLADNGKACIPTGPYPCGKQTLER

## Cc1nn(-c2ccccc2)c(C)c1NC(=O)C(C)OC(=O)Cn1c(C)cc2ccccc21 (racemic) [compound 37]
Factor Xa; [1]
  IC50: > 50 µM
Thrombin; [2]
  IC50: > 50 µM
KLK6; [3]
  IC50: 1.48 µM
Trypsin; [4]
  IC50: > 50 µM

## Cc1nn(-c2ccccc2)c(C)c1NC(=O)COC(=O)Cn1c(C)cc2ccccc21 [compound 1, 2-((3,5-dimethyl-1-phenyl-1H-pyrazol-4-yl)amino)-2-oxoethyl 2-(2-methyl-H-indol-1-yl)acetate]
Factor Xa
  IC50: > 200 µM
Thrombin
  IC50: > 200 µM
Trypsin
  IC50: 39.4 µM

## Cc1nn(C)c(C)c1NC(=O)COC(=O)Cn1c(C)cc2ccccc21 [compound 2, 2-oxo-2-((1,3,5-trimethyl-1H-pyrazol-4-yl)amino)ethyl 2-(2-methyl-1H-indol-1-yl)acetate]
Factor Xa
  IC50: > 200 µM
Thrombin
  IC50: > 200 µM
KLK6
  IC50: 1.25 µM
Trypsin
  IC50: 71.5 µM

## Cc1cccc(-n2nc(C)c(NC(=O)COC(=O)Cn3c(C)cc4ccccc43)c2C)c1 [compound 3, 2-((3,5-dimethyl-1-(m-tolyl)-1H-pyrazol-4-yl)amino)-2-oxoethyl 2-(2-methyl-1H-indol-1-yl)acetate]
Factor Xa
  IC50: > 200 µM
Thrombin
  IC50: > 200 µM
KLK6
  IC50: 0.371 µM
Trypsin
  IC50: 65.7 µM

## Cc1nn(-c2ccccc2)c(C)c1NC(=O)COC(=O)Cc1c[nH]c2ccccc12 [compound 12, 2-((3,5-dimethyl-1-phenyl-1H-pyrazol-4-yl)amino)-2-oxoethyl 2-(1H-indol-3-yl)acetate]
Factor Xa
  IC50: 135 µM
Thrombin
  IC50: > 200 µM
Trypsin
  IC50: 139 µM

## Cc1ccccc1NC(=O)COC(=O)Cn1c(C)cc2ccccc21 [compound 26]
Factor Xa; [1]
  IC50: > 50 µM
Thrombin; [2]
  IC50: > 50 µM
Trypsin; [4]
  IC50: > 50 µM

## Cc1nn(-c2ccccc2)c(C)c1NC(=O)COC(=O)Cn1c(C)cc2cc(Cl)ccc21 [compound 30]
Factor Xa; [1]
  IC50: > 50 µM
Thrombin; [2]
  IC50: > 50 µM
Trypsin; [4]
  IC50: > 50 µM

## Cc1nn(-c2ccccc2)c(C)c1NC(=O)COC(=O)Cc1c(C)[nH]c2ccccc12 [compound 38]
Factor Xa; [1]
  IC50: > 50 µM
Thrombin; [2]
  IC50: > 50 µM
Trypsin; [4]
  IC50: 27.4 µM

## Cc1nn(-c2ccccc2)c(C)c1NC(=O)C1(OC(=O)Cn2c(C)cc3ccccc32)CC1 [compound 40]
Factor Xa; [1]
  IC50: > 50 µM
Thrombin; [2]
  IC50: > 50 µM
Trypsin; [4]
  IC50: > 50 µM

## Cc1nn(-c2ccccc2)c(C)c1NC(=O)COC(=O)Cc1cccc2ccccc12 [compound 42]
Thrombin; [2]
  IC50: > 50 µM
Trypsin; [4]
  IC50: > 50 µM

## Cc1nn(-c2ccccc2)c(C)c1NC(=O)COC(=O)Cc1ccccc1 [compound 43]
Thrombin; [2]
  IC50: > 50 µM
Trypsin; [4]
  IC50: > 50 µM

## Cc1nn(-c2ccccc2)c(C)c1NC(=O)COC(=O)Cc1ccc(N)cc1 [compound 44]
Thrombin; [2]
  IC50: > 50 µM
KLK6; [3]
  IC50: 12.2 µM
Trypsin; [4]
  IC50: > 50 µM

## Cc1nn(-c2ccccc2)c(C)c1NC(=O)COC(=O)Cc1ccccc1Cl [compound 45]
Thrombin; [2]
  IC50: > 50 µM
KLK6; [3]
  IC50: 1.36 µM
Trypsin; [4]
  IC50: > 50 µM

## Cc1nn(-c2ccccc2)c(C)c1NC(=O)COC(=O)Cc1ccc(C#N)cc1 [compound 46]
Thrombin; [2]
  IC50: > 50 µM
KLK6; [3]
  IC50: 29.4 µM
Trypsin; [4]
  IC50: > 50 µM

## Cc1nn(-c2ccccc2)c(C)c1NC(=O)COC(=O)Cc1ccccc1Br [compound 48]
Factor Xa; [1]
  IC50: > 200 µM
Thrombin; [2]
  IC50: > 200 µM
Trypsin; [4]
  IC50: > 200 µM

## Cc1nn(-c2ccccc2)c(C)c1NC(=O)COC(=O)Cc1ccsc1 [compound 70]
Factor Xa; [1]
  IC50: > 200 µM
Thrombin; [2]
  IC50: > 200 µM
Trypsin; [4]
  IC50: > 200 µM

## Cc1[nH]c2ccccc2c1CC(=O)OCC(=O)Nc1ccc(N2CCOCC2)cc1 [compound 76]
Factor Xa; [1]
  IC50: > 200 µM
Thrombin; [2]
  IC50: > 200 µM
Trypsin; [4]
  IC50: > 200 µM

## Cc1nn(-c2ccccc2)c(C)c1NC(=O)COC(=O)C(C)c1c(C)[nH]c2ccccc12 (stereo not shown) [compound 81]
Factor Xa; [1]
  IC50: > 200 µM
Thrombin; [2]
  IC50: > 200 µM
Trypsin; [4]
  IC50: > 200 µM

## Cc1[nH]c2ccccc2c1CC(=O)OCC(=O)Nc1cncnc1 [compound 86]
Factor Xa; [1]
  IC50: 148 µM
Thrombin; [2]
  IC50: 66.1 µM
Trypsin; [4]
  IC50: > 200 µM

## Cc1nn(-c2ccccc2)c(C)c1NC(=O)COC(=O)CCc1c(C)[nH]c2ccccc12 [compound 87]
Factor Xa; [1]
  IC50: > 200 µM
Thrombin; [2]
  IC50: > 200 µM
Trypsin; [4]
  IC50: > 200 µM
